The results in this text go back to patent US20090062255A1, “TUMOR-TARGETING EVALUATION METHODOLOGY AND COMPOUNDS RELATED THERETO” (THALLION PHARMACEUTICALS INC., priority 2007, published 2009).

Test [1] has as its target GABAA, the Central Benzodiazepine Receptor (CBR). Kind of test: CBR radioligand binding assay ([3H]flunitrazepam, rat brain). As to conditions: 1 nM [3H]-Flunitrazepam. The text has this: GABAA, the Central Benzodiazepine Receptor (CBenzR or CBR) is involved in anxiolitic activities.
The procedures used were based on known assays: ACAT (from rat; Ref: Largis et al (1989), J. Lipid. Res., vol 30, 681-689), COX-2 (human; Ref: Riendeau et al (1997), Can. J. Physiol. Pharmacol., vol 75, 1088-1095 and Warner et al (1999), Pro. Natl. Acad. Sci. USA, vol 96, 7563-7568), 5-LO (human; Ref: Carter et al (1991), J. Pharmacol. Exp. Ther., vol 256, no 3, 929-937, and Safayhi et al (2000), Planta Medica, vol 66, 110-113), PBR (from rat; Le Fur et al (1983), Life Sci. USA, vol 33, 449-457), CysLT1 (human; Martin et al (2001), Biochem. Pharmacol., vol 62, no 9, 1193-1200) and CBR (from rat; Damm et al (1978), Res. Comm. Chem. Pathol. Pharmacol., vol 22, 597-600 and Speth et al (1979), Life Sci., vol 24, 351-357).
Binding Assays were done at constant concentration of the compound, in 1% DMSO as vehicle, and are specified below each enzyme/receptor type in Table 18. The results are expressed in Table 18 as percentage inhibition. […]
As Compound 1 was isolated from structural prediction through genetic analysis and activity identified through in vitro cytotoxic assays, its molecular target(s) were unknown at the time of discovery. […] The effect of ECO-4601 on CBR (GABAA) and PBR was initially evaluated in a radioligand-binding assay at MDS Pharma Services (Taipei, Tawain). […]

The test system of test [2] is DN oligodendroglioma cell line. The experiment in a line: MTT cytotoxicity, DN cell line. Type of test: cell-based. The note with it: 96 h, Human. As for the experimental part: The cytotoxic activity of Compound 1 was further evaluated using a panel of brain tumor cell lines. This study was performed in collaboration with INSERM (Grenoble, France). Tumor cells (5,000 to 10,000 cells per well depending on their doubling time) were plated in 96-well flat-bottom plates and incubated for 24 hours before treatment. Tumor cells were then incubated for 96 hours with seven different concentrations of Compound 1: […], 0.01, and 0.001 μM. The in vitro cytotoxic activity was determined by a standard MTT assay.

Test [3] has as its system prenylation of Ras, RAP1A and HDJ2 (FTase, GGTase I). The experiment in a line: Protein prenylation immunoblot (FTase and GGTase I activities) in MCF-7 cells. Type of test: cell-based, human. As to conditions: MCF7 cells, 3, 10 and 30 μM, 24 h; listed as ECO-4601. Here is the method: It was first verified if ECO-4601 interferes with Ras processing by monitoring FTase and GGTase I activities by immunoblot analysis. For these experiments, exponentially growing MCF-7 (human breast tumor) cells were seeded in 60 mm cell culture dishes at a density of 2.5×10^6 cells per dish. After an 18 h incubation period, ECO-4601 or lovastatin (Sigma-Aldrich, St. Louis, Mo.) were added at a final concentration of 3, 10 and 30 μM for 24 h. Cells were also treated with the vehicle alone (0.05% DMSO) for the same incubation periods. Treated and control cells were lysed in ice-cold RIPA buffer (50 mM Tris-HCl pH 7.4, 1% Triton X-100, 1% deoxycholate, 0.1% SDS, 150 mM NaCl, and 1 mM EDTA) containing protease inhibitors (Roche, Mannheim, Germany) and phosphatase inhibitors (EMD Biosciences, Calbiochem, San Diego, Calif.) for 20 minutes on ice. After lysis, cell debris was removed by centrifugation at 12000×g for 10 min. […] Bound antibodies were detected using horseradish peroxidase-conjugated secondary antibodies (Jackson ImmunoResearch Laboratories Inc., West Grove, Pa.) for 1 h at room temperature in 0.5% skim milk-TBS, visualized by treating the membranes with enhanced chemiluminescence reagents (Millipore, Mississauga, ON, Canada) and exposing them to BioMax Light Films (Kodak, Mississauga, ON, Canada). […]
A general note: Immunoblotting shows a protein as a band on a membrane.

Entries after “also recorded” stand apart in the source; their conditions may differ.

For orientation: IC50 means the concentration at which inhibition is half-maximal. For `CC(C)=CCC/C(C)=C/CC/C(C)=C/CN1C(=O)c2cccc(O)c2Nc2c(O)cc(O)cc21` [Compound 1, 10-farnesyl-4,6,8-trihydroxy-5,10-dihydrodibenzo[b,e][1,4]diazepin-11-one], the IC50 is above 10 µM in test [1] and 3000 ± 700 nM in test [2]. In test [3], the “effect on protein prenylation (mobility shift of Ras, RAP1A and HDJ2)” value is reported as “does not inhibit protein prenylation; also recorded: no effect”.
